Assay results as given in patent US20100280358A1, “SINGLE BREATH-HOLD SYSTEM AND METHOD FOR DETECTION AND ASSESSMENT OF MULTI-ORGAN PHYSIOLOGIC, MORPHOLOGIC AND STRUCTURAL CHANGES” (University of Virginia Patent Foundation, priority 2009, published 2010).

Tests used:
[1] = tested on: rabbit model of stereotactic lung radiosurgery; experiment: SB-CSI with hp Xe-129 in a rabbit model of stereotactic lung radiosurgery with and without a radioprotector; format: in vivo, New Zealand rabbits; conditions: for mean difference between the lungs (SB-CSI maps, mean±SD): right lower lobe 3 x 11 Gy, 50 mg/Kg I.V. 20 minutes before each radiation dose, baseline 3.2%±3.5%
Excerpt: In order to study the efficacy of this technique for detecting changes in lung physiology and morphology, it was applied to a rabbit model of stereotactic lung radiosurgery with and without a radioprotector. The lower lobes of the right lung of nine New Zealand rabbits were irradiated with 3 doses of 11 Gy each (FIGS. 2A, 2B) using a TomoTherapy Hi-Art scanner. The healthy left lung was spared from radiation, so it could be used as a control and also would improve the animal's quality of life. Six of these nine animals received 50 mg/Kg of the radioprotector Amifostine, through an I.V., 20 minutes before each radiation dose. SB-CSI was performed using a 1.5-Tesla clinical MR scanner at baseline, and at 4 and 8 weeks post-radiation treatment. For correlation with the SB-CSI results, each animal was also scanned at the same time points (in the same MR scanner) using a 3D contrast-enhanced MRA sequence (ce-MRA), with 3 cc of a gadolinium chelate (FIGS. 2E, 2F). Within a week of the Xe-129 scan, a hyperpolarized Helium-3 (hp He-3) ventilation scan (FIGS. 2G, 2H) was obtained using the same inhalation and breath-hold technique as those for Xe-129, and a computed tomography (CT) scan was also obtained with a resolution of 0.5×0.5×1.5 mm^3 (FIGS. 2C, 2D).
SB-CSI maps based on the integrals of each individual peak were calculated separately for each animal and for each time point. At baseline the mean differences between the lungs were statistically identical for both groups, with 1.3%±1.0% (mean±SD) for the control group (radiosurgery only) and 3.2%±3.5% for the group that received radiosurgery and the radioprotector. At 4 weeks post radiosurgery, the mean differences between the lungs were 6.2%±2.3% and 4.6%±3.2% for the control and radioprotector groups, respectively. At 8 weeks post, the mean difference between the lungs increased to 16.7%±3.2% for the control group, while for the animals that received the radioprotector the value remained identical to baseline, at 3.4%±2.6%. […]

[2] = tested on: rabbit model of lung fibrosis; experiment: hyperpolarized Xe-129 2D/3D-CSI in a rabbit model of lung fibrosis (endotracheal bleomycin); format: in vivo, New Zealand White rabbits; conditions: after endotracheal instillation, scans at 2, 4 and 7 weeks
Excerpt: Three New Zealand White rabbits underwent hyperpolarized Xe-129 2D or 3D-CSI one four different days: one before and 2, 4 and 7 weeks after the endotracheal instillation of bleomycin which induces lung fibrosis, or after the endotracheal instillation of porcine elastase which initially induces lung inflammation but later induces emphysema, and one control animal with no intervention. All scans were done in a 1.5 Tesla clinical system (Avanto, Siemens Medical Solutions) using a transmitter/receiver birdcage RF coil (IGC Medical Advances, Milwaukee, Wis.) tuned to the Xe-129 frequency. Isotopically enriched (˜87%) Xe-129 was polarized to ˜35% using a commercial prototype polarizer (Xemed LLC, NH). For each 2D or 3D acquisition, a single 40-cc volume was administered to the animal, and respiration was suspended for the acquisition (˜6-18s). […]
Quantification of the maps for the animal in the fibrosis model group show an increase in the tissue/gas and RBC/gas ratios following the instillation of bleomycin, but only the tissue/gas remained elevated, as expected in fibrosis (FIG. 5).
This Xe-129 dissolved-phase peak is not well resolved in normal rabbits and it was not seen in our control animal. […] Subsequently, each separate peak in the spectrum was quantified using a Principal Component Analysis (PCA) method (33)

Molecule | early treatment toxicity (radiation-induced pulmonary injury) detected by SB-CSI ([1]; 4 and 8 weeks post treatment, versus radiation only) | mean difference between the lungs (SB-CSI maps, mean±SD) ([1]; 4 weeks post radiosurgery, control group 6.2%±2.3%) | mean difference between the lungs (SB-CSI maps, mean±SD) ([1]; 8 weeks post radiosurgery, control group 16.7%±3.2%) | RBC/gas ratio (Xe-129 CSI maps) ([2]; did not remain elevated (FIG. 5)) | tissue/gas ratio (Xe-129 CSI maps) ([2]; remained elevated (FIG. 5))
NCCCNCCSP(=O)(O)O [radioprotector, Amifostine] | reduced early treatment toxicity | 4.6%±3.2% | 3.4%±2.6% |  | 
bleomycin |  |  |  | increase | increase
